Measured values from patent US10851165B2, “Antibody molecules to PD-L1 and methods of treating cancer” (Novartis AG, priority 2014, dated 2020).

Tests used:
[1] = tested on: PD-L1 (CD274) mRNA in HEYA8 tumors; experiment: PD-L1 mRNA by TaqMan RT PCR in HEYA8 tumor xenograft model; format: in vivo, human; conditions: tumor xenograft model bearing HEYA8 (KRAF mutant ovarian cancer)
Experimental: (§1) Isolated RNA was frozen at −80° C.
(§2) Each sample was run in triplicate.

[2] = tested on: PD-L1 (CD274) mRNA in UKE-1 tumors; experiment: PD-L1 mRNA by TaqMan RT PCR in UKE-1 tumor xenograft model; conditions: tumor xenograft model bearing UKE-1 (MPN line with JAK2V617F mutation)
[3] = tested on: PD-L1 (CD274) mRNA in H3122 cells; experiment: PD-L1 mRNA by TaqMan RT PCR in H3122 cells in vitro; format: cell-based, human; conditions: H3122 (NSCLC with ALK translocation) in vitro
Experimental: H3122 cells are non-small cell lung cancer (NSCLC) cells with an ALK translocation.
as §1, §2

[4] = tested on: PD-L1 (CD274) mRNA in LOXIMV1 tumors; experiment: PD-L1 mRNA by TaqMan RT PCR in LOXIMV1 tumor xenograft model; format: in vivo, human; conditions: tumor xenograft model bearing LOXIMV1 (BRAF mutant melanoma)
Experimental: as §1, §2

[5] = tested on: PD-L1 (CD274) in EBC-1 cells; experiment: PD-L1 surface expression by flow cytometry in EBC-1 cells in vitro; format: cell-based, human; conditions: EBC-1 cells (NSCLC with cMET amplification) in vitro; 10 nM, 100 nM, 1000 nM; 24, 48 and 72 hours; vs DMSO
Experimental: EBC-1 cells are non-small cell lung cancer cells with a cMET amplification.
PD-L1 (CD274) expression was analyzed in cancer cell lines treated with Compound A17. Cells were obtained from ATCC and cultured in vitro following ATCC directions. The cell lines used were previously characterized by the Cancer Cell Line Encyclopedia Project (http://www.broadinstitute.org/ccle/home).
Cells plated in six-well culture plates were treated with the Compound A17 at different concentrations (10 nM, 100 nM, and 1000 nM) for 24, 48 and 72 hours. Equal amount of vehicle (DMSO) was used as a control. Cells were washed with PBS and then harvested using a cell scraper.
For each reaction, 0.5-1×10^6 cells were stained with 20 μL of anti-human monoclonal PD-L1-PE antibody, clone M1H1 (BD) for 30-60 minutes at 4° C. Cells were washed twice and data was acquired using a Canto II with FACSDiva software (BD Bioscience). Data analysis was performed using FlowJo software (Tree Star). Mean fluorescence intensity (MFI) was determined by gating on single cells. Unstained cells were used as a gating control.

[6] = tested on: PD-L1 (CD274) mRNA in Hs.746.T tumor; experiment: PD-L1 mRNA by TaqMan RT PCR in Hs.746.T tumor xenograft; format: in vivo, human; conditions: Hs.746.T tumor (gastric cancer cell with cMET amplification & mutation) xenograft
Experimental: Hs.746.T cells are gastric cancer cells with a c-MET amplification and a c-MET mutation.
as §1, §2

huPD-L1 = target: T1, huPD-L1 (Homo sapiens, UniProt Q9NZQ7); experiment: FACS binding of chimeric and humanized BAP058 mAbs to 300.19 cells expressing huPD-L1; conditions: 300.19 cell line expressing huPD-L1 on the cell surface
T1 construct: expressed in transfected cells; host or cells: 300.19 cells
Experimental: FIG. 3 is a bar graph showing the results of FACS binding analysis for the seventeen humanized BAP058 clones (BAP058-hum01 to BAP058-hum17). The antibody concentrations are 200, 100, 50, 25 and 12.5 ng/ml from the leftmost bar to the rightmost bar for each tested mAb.
Humanization of BAP058 was performed using a combinatorial library of human germline variable region frameworks (FWs). The technology entails transferring the murine CDRs in frame to a library of human variable regions (VRs) that had been constructed by randomly combining human germ line FW1, FW2 and FW3 sequences. Only one FW4 sequence was used, which is […] (SEQ ID NO: 154) for the heavy chain (HC) (Kabat human HC subgroup I, No. 21) and […] (SEQ ID NO: 186) for the light chain (LC) (Kabat human κ subgroup I, No. 5). The library of VR sequences was fused to human constant region (CR) sequences, human IgG4 (S228P) of HC and human κ CR of LC, and the resulting library of whole IgG mAbs was expressed in CHO cells for screening. Screening was performed with tissue culture supernatants measuring binding avidity on antigen-expressing cells in a whole cell ELISA format or on FACS.
Binding of the recombinant clone to human PD-L1 was tested using the 300.19 cell line expressing huPD-L1 on the cell surface and FACS analysis.

T1 sequence (Q9NZQ7 19-290): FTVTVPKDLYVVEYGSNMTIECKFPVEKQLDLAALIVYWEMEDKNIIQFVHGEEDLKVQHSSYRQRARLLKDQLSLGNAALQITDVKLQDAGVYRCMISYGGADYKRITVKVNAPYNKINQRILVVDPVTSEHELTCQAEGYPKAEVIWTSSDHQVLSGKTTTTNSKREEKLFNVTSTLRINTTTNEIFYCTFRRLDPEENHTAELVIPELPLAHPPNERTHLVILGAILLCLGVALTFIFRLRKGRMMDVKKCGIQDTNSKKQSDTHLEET

For `Cn1cnc2c(F)c(Nc3ccc(Br)cc3F)c(C(=O)NOCCO)cc21` [Compound A34, Binimetinib], the “PD-L1 mRNA” value [1] was “Downregulation of PD-L1 mRNA”.

`N#CC[C@H](C1CCCC1)n1cc(-c2ncnc3[nH]ccc23)cn1` [Compound A18, Ruxolitinib Phosphate] was tested, and the “PD-L1 mRNA” value [2] was “Downregulation of PD-L1 mRNA”.

In the case of `Cc1cc(Nc2ncc(Cl)c(Nc3ccccc3S(=O)(=O)C(C)C)n2)c(OC(C)C)cc1C1CCNCC1` [Compound A23, ceritinib], the “PD-L1 mRNA” value [3] is reported as “Inhibition of PD-L1 mRNA”.

For `COC(=O)N[C@@H](C)CNc1nccc(-c2cn(C(C)C)nc2-c2cc(Cl)cc(NS(C)(=O)=O)c2F)n1` [Compound A29, Encorafenib], the “PD-L1 mRNA” value [4] was “Downregulation of PD-L1 mRNA”.

With `CNC(=O)c1ccc(-c2cnc3ncc(Cc4ccc5ncccc5c4)n3n2)cc1F` [Compound A17, 2-fluoro-N-methyl-4-(7-(quinolin-6-ylmethyl)imidazo[1,2-b][1,2,4]triazin-2-yl)benzamide] the “surface expression of PD-L1 (flow cytometry)” value [5] was “significant downregulation of surface expression of PD-L1” and the “PD-L1 expression (mRNA)” value [6] was “Inhibition of PD-L1 expression (mRNA)”.

B1: BAP058-chi: chimeric mAb: murine VR, human IgG4 (S228P), human κ (antibody, V domains shown)
VH: EVQLQQSGAELVKPGASVKLSCKASGYTFTSYWMYWVKQGPGRGLEWIGRIDPNSGSTKYNEKFKNKATLTVDKSSSTAYMQLSSLTSEDSAVYYCARDYRKGLYAMDYWGQGTTVTVSS
VL: DIMMTQSHKFMSTSVGDRVSITCKASQDVGTAVAWYQQKPGQSPKLLIYWASTRHTGVPDRFTGSGSGTDFTLTISNVQSEDLADYFCQQYNSYPLTFGQGTKVEIK
For B1, the “Binding to human PD-L1 (FACS analysis)” value (huPD-L1) was “bound well to the antigen”.
